Results: US5543420A, “Quinoline-3-acetic acid derivative, process for production thereof and use thereof” (The Green Cross Corporation, priority 1993, dated 1996)

What was measured:
[1] = test system: sorbitol accumulation in tissues (erythrocytes, sciatic nerve, lens); test: Inhibitory action on sorbitol accumulation in tissues of rats with experimental diabetes; format: in vivo, Sprague-Dawley rats; details: streptozotocin rats, 3 hours after final administration, control taken as 100%
Procedure: Sprague-Dawley rats (male, 6 weeks old, 5-6 per group) were fasted for 18 hours and injected with streptozotocin (SIGMA, 60 mg/kg) via the tail vein under etherization to prepare rats with diabetes.
[…] During the administrations, the rats were raised under free access to feed and water and the sorbitol content in the tissues (erythrocytes, sciatic nerve, lens) was determined 3 hours after the final administration according to the enzyme method of H. Y. Bergmeyer et al. [Methods of Enzymatic Analysis, vol. 3, 1323-1330 (1974)] with the use of SDH (sorbitol dehydrogenase) and NAD (β-nicotinamide adenine dinucleotide). The results are expressed in percent (%) relative to the value of a control group administered with 0.5% carboxymethylcellulose solution (solvent) instead of the compound, which was taken as 100%.

Normal ICR mice = details: mouse, in vivo
Procedure: The acute toxicity (safety) of the compound of the present invention was confirmed by the following method.
Normal ICR mice (male, 7 weeks old, 5 per group) were fasted for 18 hours and the compounds (300 mg/kg) of Example 11 and Example 20 were orally administered as 0.5% carboxymethylcellulose suspensions. To the control group, a 0.5% carboxymethylcellulose solution alone was orally administered and observation was continued for 14 days thereafter, during which period the mice were allowed to take feed and water freely.

aldose reductase = target: T1, aldose reductase (Sus scrofa, UniProt P80276); test: Aldose reductase inhibitory action; format: biochemical; details: swine lens enzyme, diglyceraldehyde substrate 3 mM, 0.1 mM NADPH, pH 6.2, 25° C., 2 minutes; read-out: IC50 (concentration inhibiting the aldose reductase activity by 50%)
T1 construct: An aldose reductase enzyme standard product was prepared from swine lens; from tissue; host or cells: swine lens
Procedure: An aldose reductase enzyme standard product was prepared from swine lens according to the method of S. Hayman et al. [Journal of Biological Chemistry, 240, 877-882 (1965)]. That is, swine lenses freeze-stored at -80° C. were homogenized with distilled water and cetrifuged at 10,000 g for 15 minutes. The supernatant was prepared into a 40% ammonium sulfate solution and subjected to cetrifugation at 10,000 g for 10 minutes. The supernatant obtained was dialyzed overnight against a 0.05M sodium chloride solution to give a dialyzed solution, which was used as an enzyme standard product.
The activity of aldose reductase was determined by the above-mentioned method of S. Hayman et al. That is, the above-mentioned enzyme solution (25 μl) and a drug solution (25 μl) in 1% DMSO at various concentrations were added to a 40 mM phosphate buffer (200 μl, pH 6.2) containing final concentrations of 0.4M lithium sulfate, 0.1 mM NADPH (reduced type nicotinamide adenine dinucleotide phosphate) and 3 mM diglyceraldehyde as a substrate. The mixture was allowed to react at 25° C. for 2 minutes and the changes in absorbance at 340 nm was determined with COBAS FARA II (manufactured by Roche).
The changes in absorbance when 1% DMSO was added instead of the drug solution was taken as 100%, based on which 50% inhibition concentration (IC50) was calculated and shown in Table 1.
The test drug number indicates the example number to be mentioned later. Compound A is 3,4-dihydro-2,8-diisopropyl-3-thioxo-2H-1,4-benzoxazine-4-acetic acid disclosed in Japanese Patent Unexamined Publication 107970/1988.

[2] = 30 mg/kg oral at 4, 8 and 24 hours
[3] = 10 mg/kg oral at 4, 8 and 24 hours

Row | SMILES | Sorbitol accumulation, erythrocytes [1, 2] | Sorbitol accumulation, lens [1, 2] | Sorbitol accumulation, sciatic nerve [1, 2] | Sorbitol accumulation, erythrocytes [1, 3] | Sorbitol accumulation, lens [1, 3] | Sorbitol accumulation, sciatic nerve [1, 3] | death of the mice (Normal ICR mice) | IC50 (aldose reductase)
1 | CC(C)c1cccc2c1OC(C(C)C)C(=S)N2CC(=O)O (stereo not shown) [Compound A, 3,4-dihydro-2,8-diisopropyl-3-thioxo-2H-1,4-benzoxazine-4-acetic acid, reference compound] | 53.7% | 87.3% | 54.9% |  |  |  |  | 
2 | O=C(O)CC1Cc2ccccc2N(Cc2nc3c(F)c(F)cc(F)c3s2)C1=O (stereo not shown) [Example 11, 1-(4,5,7-Trifluorobenzothiazol-2-Yl)Methyl-2-Oxo-1,2,3,4-Tetrahydro-1H-Quinolin-3-Ylacetic Acid] |  |  |  | 15.6% | 50.7% | 0.0% | no case of death | 9 nM
3 | O=C(O)CC1Cc2ccccc2N(Cc2nc3c(F)c(F)ccc3s2)C1=O (stereo not shown) [Example 12, 1-(4,5-difluorobenzothiazol-2-yl)methyl-2-oxo-1,2,3,4-tetrahydro-1H-quinolin-3-ylacetic acid] |  |  |  | 0.0% | 78.8% | 0.0% |  | 13 nM
4 | Cc1ccc2c(c1)CC(CC(=O)O)C(=O)N2Cc1nc2c(F)c(F)cc(F)c2s1 (stereo not shown) [Example 17, 1-(4,5,7-trifluorobenzothiazol-2-yl)methyl-6-methyl-2-oxo-1,2,3,4-tetrahydro-1H-quinolin-3-ylacetic acid] |  |  |  | 31.2% | 46.9% | 0.5% |  | 11 nM
5 | O=C(O)CC1Cc2cc(F)ccc2N(Cc2nc3c(F)c(F)cc(F)c3s2)C1=O (stereo not shown) [Example 19, 6-fluoro-1-(4,5,7-trifluorobenzothiazol-2-yl)methyl-2-oxo-1,2,3,4-tetrahydro-1H-quinolin-3-ylacetic acid] |  |  |  |  |  |  |  | 12 nM
6 | O=C(O)Cc1cc2ccccc2n(Cc2nc3c(F)c(F)cc(F)c3s2)c1=O [Example 20, 1-(4,5,7-trifluorobenzothiazol-2-yl)methyl-2-oxo-1,2-dihydro-1H-quinolin-3-ylacetic acid] |  |  |  |  |  |  | no case of death | 9.4 nM
